Results published in patent publication US20090324500A1, “SCREEN FOR INFLAMMATORY RESPONSE MODULATORS” (priority 2006, published 2009).

Test system: neutrophils
Assay: Tail transection injury in transgenic MPO:GFP zebrafish larvae, neutrophil counts at the site of injury
Type: in vivo
From the text: AB strain zebrafish from existing aquarium stocks were maintained according to standard protocols. A BAC containing approx 130 kB of 5′ promoter sequence to the MPO gene was identified (zC91B8). This BAC was modified to contain an in-frame GFP sequence beginning at the translation start site of the MPO gene by recombinase activity as previously described (Lee, E. C. et al (2001) Genomics 73, 56-65). EL250 cells required for the recombination step were a kind gift of Dr. Neal Copeland, National Cancer Institute, Frederick, […]., USA. Insertion of the GFP sequence was confirmed by co-insertion of a kanamycin resistance gene, which in turn was flanked by FRT sites leading to its easy removal before introduction into the zebrafish. As part of this process a vector was created consisting of a truncated portion of the Bluescript vector, into which we had blunt cloned a construct consisting of GFP and the FRT-flanked Kanamycin resistance gene, all of which was flanked by MPO homology arms. Using this construct, we were able to add a Nuclear Localising Sequence corresponding to that used in the Clontech vector pEYFPnuc by PCR and self ligation.
The modified BACs were injected into fertilised AB zebrafish embryos at the 1-2 cell stage, and larvae screened at 36-48 hours for the presence of fluorescence. Fluorescent larvae were grown to maturity and either in- or out-crossed to identify germ cell carriage of the transgene.
A BAC containing over 100 kb of sequence 5′ to the Zebrafish MPO promoter was identified and modified to contain an in frame GFP sequence (FIG. 3). This was then injected into zebrafish embryos at the 1-cell stage and a transgenic line created. GFP expression recapitulates the expression of myeloperoxidase in cells whose morphology is consistent with neutrophil granulocytes (see FIG. 4). When these fish are injured, neutrophils accumulate at the site of injury over time (FIGS. 5 and 6).
Neutrophil number at the site of injury following tail transection can be assessed either by manual counting (FIG. 7a) or by automated image analysis (FIG. 7b).
Manipulation of the inflammatory response in transgenic zebrafish has been performed exemplifying the role of manipulation of granulocyte apoptosis in regulating the resolution of inflammation. […] P<0.05 for t=24, zVD.fmk treated vs all other groups (1 way ANOVA with Bonferroni post test correction).
In FIG. 8b counts of fluorescent cells in individual larvae were performed for fish in the presence or absence of the bacterial product Lipopolysaccharide (LPS). LPS was added at 6 hours post injury (hpi), and counts made at 6 and 24 hpi. […] In FIG. 8c, Pyocyanin (a bacterial pigment with pro-apoptotic effects on neutrophils) was added at 4 hpi, and counts made at 8 hpi.

Lipopolysaccharide [LPS]
% reduction in neutrophil numbers (added at 6 hpi, counts at 6 and 24 hpi, vs untreated fish, p<0.05, FIG. 8b): significantly lower

Cn1c2cccc(=O)c-2nc2ccccc21 [Pyocyanin]
absolute cell counts (neutrophil numbers) (added at 4 hpi, counts at 8 hpi, FIG. 8c): reduce neutrophil numbers

CC(C)[C@H](NC(=O)OCc1ccccc1)C(=O)NC(CC(=O)O)C(=O)CF (stereo partly shown) [zVD.fmk]
neutrophil numbers at the inflammatory site (resolution of inflammation) (between 6 hours and 24 hours after injury, FIG. 8a, P<0.05 at t=24 vs all other groups): persistence of neutrophil numbers | effect on granulocyte apoptosis (transgenic zebrafish, FIG. 8a): delays apoptosis
